# Results taken from patent US10925874B2, “Substituted pyrazolopyrimidines as glucocerebrosidase activators” (The United States of America, as Represented by the …, priority 2010, dated 2021).
# Values joined by “and” are separate entries in the source; they are usually repeats but may differ in a detail not shown here. Equal values may be shown once.
# Molecular target: T1, N370S glucocerebrosidase from human spleen homogenate (Homo sapiens, UniProt P04062, N409S)
# T1 construct: N370S glucocerebrosidase from human spleen homogenate as the enzyme preparation; from tissue; host or cells: human spleen homogenate
# T1 sequence (P04062 40-536 N409S): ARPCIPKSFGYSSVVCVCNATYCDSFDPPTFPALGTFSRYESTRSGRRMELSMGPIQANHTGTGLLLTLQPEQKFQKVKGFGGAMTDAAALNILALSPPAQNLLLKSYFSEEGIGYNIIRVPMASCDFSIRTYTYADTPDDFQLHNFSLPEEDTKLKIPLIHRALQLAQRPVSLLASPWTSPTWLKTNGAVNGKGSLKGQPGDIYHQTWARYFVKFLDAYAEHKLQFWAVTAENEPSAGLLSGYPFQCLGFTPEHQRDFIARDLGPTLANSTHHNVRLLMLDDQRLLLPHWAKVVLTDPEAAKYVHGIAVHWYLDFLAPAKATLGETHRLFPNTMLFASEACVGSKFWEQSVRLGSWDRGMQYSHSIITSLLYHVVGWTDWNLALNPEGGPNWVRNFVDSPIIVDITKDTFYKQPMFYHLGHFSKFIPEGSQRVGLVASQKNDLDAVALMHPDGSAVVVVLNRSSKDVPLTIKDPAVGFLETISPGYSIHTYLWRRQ
# Experiment: qHTS fluorogenic enzyme assay for activators of N370S glucocerebrosidase (4-methylumbelliferyl-beta-D-glucopyranoside substrate)
# Assay type: biochemical
# Details: pH 5.0, 37° C. 40 min
# Excerpt: qHTS Assay for Inhibitors and Activators of N370S glucocerebrosidase as a Potential Chaperone Treatment of Gaucher Disease: Primary Screen Confirmation
# This is a fluorogenic enzyme assay with 4-methylumbelliferyl-beta-D-glucopyranoside as the substrate and N370S glucocerebrosidase from human spleen homogenate as the enzyme preparation. Upon the hydrolysis of this fluorogenic substrate, the resulting product, […] which can be detected by a standard fluorescence plate reader. Data were normalized to the controls for basal activity (without enzyme) and 100% activity (with enzyme). The AC50 values were determined from concentration-response data modeled with the standard Hill equation.
# Human spleen homogenate is prepared as follows by homogenizing spleen with assay buffer containing 50 mM citric acid (titrated with potassium phosphate to pH 5.0), 100 mM potassium chloride, 10 mM sodium chloride, 1 mM magnesium chloride, 0.01% Tween-20. The protein concentration of the human spleen homogenate is approximated 1.35 ug/ul.
# The assay is performed in 1536 well plates according to the following protocol. (1) 2 ul spleen homogenate ([…] final) is added to each well. (2) 23 nL test compound in DMSO solution is added to each well. The final concentration of compound in the test well is 0.5 nM to 58 uM. (3) 2 ul of substrate (1 mM final) are added to each well. (4) Incubate assay plates at 37° C. for 40 min. (5) Add 2 ul stop solution (1M NaOH and 1M Glycine mixture, pH 10) to each well. (6) Detect the assay plate in a ViewLux plate reader (PerkinElmer) using 365 nm excitation with emission at 440 nm.
row,SMILES,AC50
1,"O=C(Nc1ccc(Br)cc1F)c1cnn2c1NC(=C1CC1)C=C2C(F)F [NCGC00182179-01, N-(4-bromo-2-fluorophenyl)-5-cyclopropylidene-7-(difluoromethyl)-4,5-dihydropyrazolo[1,5-a]pyrimidine-3-carboxamide]",2.51 µM
2,"CC(C)(C)C1CCC(NC(=O)c2cnn3c2NC(=C2CC2)C=C3C(F)F)CC1 (centres unmarked) [NCGC00182182-01, N-(4-tet-butylcyclohexyl)-5-cyclopropylidene-7-(difluoromethyl)-4,5-dihydropyrazolo[1,5-a]pyrimidine-3-carboxamide]",11.2 µM
3,"O=C(Nc1cccc(Nc2ccccc2)c1)c1cnn2c1NC(=C1CC1)C=C2C(F)F [NCGC00182185-01, 5-cyclopropylidene-7-(difluoromethyl)-N-(3-(phenylamino)phenyl)-4,5-dihydropyrazolo[1,5-a]pyrimidine-3-carboxamide]",12.6 µM
4,"O=C(Nc1ccccc1Sc1ccccc1)c1cnn2c1NC(=C1CC1)C=C2C(F)F [NCGC00182186-01, 5-cyclopropylidene-7-(difluoromethyl)-N-(2-(phenylthio)phenyl)-4,5-dihydropyrazolo[1,5-a]pyrimidine-3-carboxamide]",13 µM and 7.08 µM
5,"O=C(Nc1ccccc1Br)c1cnn2c1NC(=C1CC1)C=C2C(F)F [NCGC00182188-01, N-(2-bromophenyl)-5-cyclopropylidene-7-(difluoromethyl)-4,5-dihydropyrazolo[1,5-a]pyrimidine-3-carboxamide]",12.6 µM
6,"O=C(Nc1ccccc1Sc1ccccc1)c1cnn2c1NC(=C1CC1)C=C2C(F)(F)F [NCGC00182190-01, 5-cyclopropylidene-N-(2-(phenylthio)phenyl)-7-(trifluoromethyl)-4,5-dihydropyrazolo[1,5-a]pyrimidine-3-carboxamide]",14.1 µM
7,"C=C1C=C(C)n2ncc(C(=O)NCCCCCC)c2N1 [NCGC00182197-01, N-hexyl-7-methyl-5-methylene-4,5-dihydropyrazolo[1,5-a]pyrimidine-3-carboxamide]",15.8 µM
8,"C=C1C=C(C)n2ncc(C(=O)Nc3ccc(C)cn3)c2N1 [NCGC00182198-01, 7-methyl-5-methylene-N-(5-methylpyridin-2-yl)-4,5-dihydropyrazolo[1,5-a]pyrimidine-3-carboxamide]",15.8 µM
9,"Cc1cc(C)n2ncc(C(=O)NCc3cccc(Cl)c3)c2n1 [NCGC00187965-01, N-(3-chlorobenzyl)-5,7-dimethylpyrazolo[1,5-a]pyrimidine-3-carboxamide]",18.3 µM
10,"Cc1cc(C)n2ncc(C(=O)Nc3cc(F)cc(F)c3)c2n1 [NCGC00187967-01, N-(3,5-difluorophenyl)-5,7-dimethylpyrazolo[1,5-a]pyrimidine-3-carboxamide]",6.18 µM
11,"Cc1cc(C)n2ncc(C(=O)Nc3ccc4c(c3)CCC4)c2n1 [NCGC00187969-01, N-(2,3-dihydro-1H-inden-5-yl)-5,7-dimethylpyrazolo[1,5-a]pyrimidine-3-carboxamide]",2.59 µM
12,"CCc1ccc(NC(=O)c2cnn3c(C)cc(C)nc23)cc1 [NCGC00187970-01, N-(4-ethylphenyl)-5,7-dimethylpyrazolo[1,5-a]pyrimidine-3-carboxamide]",3.26 µM
13,"Cc1cc(C)n2ncc(C(=O)NC3CCCCC3)c2n1 [NCGC00187971-01, N-cyclohexyl-5,7-dimethylpyrazolo[1,5-a]pyrimidine-3-carboxamide]",10.3 µM
14,"Cc1cc(C)n2ncc(C(=O)Nc3ccccc3)c2n1 [NCGC00187975-01, 5,7-dimethyl-N-phenylpyrazolo[1,5-a]pyrimidine-3-carboxamide]",8.19 µM
15,"Cc1cc(C)n2ncc(C(=O)NCc3ccccc3)c2n1 [NCGC00187976-01, N-benzyl-5,7-dimethylpyrazolo[1,5-a]pyrimidine-3-carboxamide]",51.7 µM
16,"Cc1cc(C)n2ncc(C(=O)NCC(C)C)c2n1 [NCGC00187978-01, N-isobutyl-5,7-dimethylpyrazolo[,15-a]pyrimidine-3-carboxamide]",32.6 µM
17,"Cc1cc(C)n2ncc(C(=O)NC3CCC(C(C)(C)C)CC3)c2n1 (centres unmarked) [NCGC00188754-01, N-(4-tert-butylcyclohexyl)-5,7-dimethylpyrazolo[1,5-a]pyrimidine-3-carboxamide]",25.9 µM
18,"Cc1cc(C)n2ncc(C(=O)NC3CCC(C(C)(C)C)CC3)c2n1 (centres unmarked) [NCGC00188755-01, N-(4-tert-butylcyclohexyl)-5,7-dimethylpyrazolo[1,5-a]pyrimidine-3-carboxamide]",4.11 µM

row,SMILES,AC50
1,"Cc1cc(C)n2ncc(C(=O)Nc3ccc(Br)cc3)c2n1 [NCGC00188756-01, N-(4-bromophenyl)-5,7-dimethylpyrazolo[1,5-a]pyrimidine-3-carboxamide]",2.06 µM
2,"Cc1cc(C)n2ncc(C(=O)NCc3ccco3)c2n1 [NCGC00188759-01, N-(furan-2-ylmethyl)-5,7-dimethylpyrazolo[1,5-a]pyrimidine-3-carboxamide]",51.7 µM
3,"Cc1cc(C)n2ncc(C(=O)Nc3cnc4ccccc4c3)c2n1 [NCGC00188762-01, 5,7-dimethyl-N-(quinolin-3-yl)pyrazolo[1,5-a]pyrimidine-3-carboxamide]",16.3 µM
4,"Cc1cc(C)n2ncc(C(=O)Nc3ccc4ccccc4n3)c2n1 [NCGC00188763-01, 5,7-dimethyl-N-(quinolin-2-yl)pyrazolo[1,5-a]pyrimidine-3-carboxamide]",20.6 µM
5,"Cc1cc(C)n2ncc(C(=O)Nc3ccc(C(C)(C)C)cc3)c2n1 [NCGC00188764-01, N-(4-tert-butylphenyl)-5,7-dimethylpyrazolo[1,5-a]pyrimidine-3-carboxamide]",2.31 µM
6,"Cc1cc(C)n2ncc(C(=O)Nc3ccc(F)cc3)c2n1 [NCGC00188766-01, N-(4-fluorophenyl)-5,7-dimethylpyrazolo[1,5-a]pyrimidine-3-carboxamide]",5.8 µM
7,"COc1ccc(NC(=O)c2cnn3c(C)cc(C)nc23)cc1 [NCGC00188768-01, N-(4-methoxyphenyl)-5,7-dimethylpyrazolo[1,5-a]pyrimidine-3-carboxamide]",8.19 µM
8,"Cc1cc(C)n2ncc(C(=O)Nc3ccc(C#N)cc3)c2n1 [NCGC00188769-01, N-(4-cyanophenyl)-5,7-dimethylpyrazolo[1,5-a]pyrimidine-3-carboxamide]",20.6 µM
9,"Cc1cc(C)n2ncc(C(=O)Nc3ccccc3C)c2n1 [NCGC00188770-01, 5,7-dimethyl-N-o-tolylpyrazolo[1,5-a]pyrimidine-3-carboxamide]",16.3 µM
10,"Cc1cccc(NC(=O)c2cnn3c(C)cc(C)nc23)c1 [NCGC00188771-01, 5,7-dimethyl-N-m-tolylpyrazolo[1,5-a]pyrimidine-3-carboxamide]",6.51 µM
11,"Cc1ccc(NC(=O)c2cnn3c(C)cc(C)nc23)cc1 [NCGC00188772-01, 5,7-dimethyl-N-p-tolylpyrazolo[1,5-a]pyrimidine-3-carboxamide]",1.63 µM
12,"Cc1cc(C)n2ncc(C(=O)Nc3ccc4c(c3)OCCO4)c2n1 [NCGC00188773-01, N-(2,3-dihydrobenzo[b][1,4]dioxin-6-yl)-5,7-dimethylpyrazolo[1,5-a]pyrimidine-3-carboxamide]",10.3 µM
13,"COc1ccc(NC(=O)c2cnn3c(C)cc(C)nc23)c(C)c1 [NCGC00188774-01, N-(4-methoxy-2-methylphenyl)-5,7-dimethylpyrazolo[1,5-a]pyrimidine-3-carboxamide]",51.7 µM
14,"COc1ccc(NC(=O)c2cnn3c(C)cc(C)nc23)cc1F [NCGC00188776-01, N-(3-fluoro-4-methoxyphenyl)-5,7-dimethylpyrazolo[,15-a]pyrimidine-3-carboxamide]",1.46 µM
15,"Cc1ccc(NC(=O)c2cnn3c(C)cc(C)nc23)c(C)c1 [NCGC00188778-01, N-(2,4-dimethylphenyl)-5,7-dimethylpyrazolo[1,5-a]pyrimidine-3-carboxamide]",13 µM
16,"Cc1ccc(NC(=O)c2cnn3c(C)cc(C)nc23)c(F)c1 [NCGC00188779-01, N-(2-fluoro-4-methylphenyl)-5,7-dimethylpyrazolo[1,5-a]pyrimidine-3-carboxamide]",11.6 µM
17,"COc1ccc(NC(=O)c2cnn3c(C)cc(C)nc23)cc1Cl [NCGC00188780-01, N-(3-chloro-4-methoxyphenyl)-5,7-dimethylpyrazolo[1,5-a]pyrimidine-3-carboxamide]",2.06 µM
